Data: paper PMC3242598, “Phase I study of BIBF 1120 with docetaxel and prednisone in metastatic chemo-naive hormone-refractory prostate cancer patients” (British Journal of Cancer, 2011)

System: patients with metastatic, chemo-naive, hormone-refractory prostate cancer (HRPC)
Test: Phase I safety analysis: adverse events graded by CTCAE version 3.0
Type: in vivo, human
Conditions: all courses
Experimental: On days 2–21 (21-day cycle), patients took an oral dose of BIBF 1120 twice daily. Patients were instructed to swallow BIBF 1120 with water at the same time every day to ensure a dose interval of ∼12 h. On day 2 of treatment cycles (TCs) 1 and 2, patients only took the morning dose of BIBF 1120, omitting the evening dose to allow PK evaluation. All patients were premedicated with oral corticosteroids (dexamethasone 8 mg per os or methylprednisolone 32 mg per os, at 12 h and 1 h before docetaxel infusion) and subsequently took 5 mg prednisone oral BID throughout the trial. On day 1 of each TC, patients received an IV infusion of 75 mg m^−2 docetaxel administered over 1 h.
All patients who received at least one dose of BIBF 1120 or docetaxel were assessed during the safety analysis. Intensity of AEs was graded according to Common Terminology Criteria for Adverse Events (CTCAE) version 3.0. Objective response was defined as a PSA decline ⩾50% from the baseline value over two consecutive courses and/or tumour response according to RECIST criteria ([Therasse et al, 2000]).

[1] = 100 mg BID (n=3) + docetaxel/prednisone, Gr 3/4
[2] = 100 mg BID (n=3) + docetaxel/prednisone, all grades
[3] = 150 mg BID (n=3) + docetaxel/prednisone, Gr 3/4
[4] = 150 mg BID (n=3) + docetaxel/prednisone, all grades
[5] = 200 mg BID (n=3) + docetaxel/prednisone, Gr 3/4
[6] = 200 mg BID (n=3) + docetaxel/prednisone, all grades

COC(=O)c1ccc2c(c1)NC(=O)/C2=C(\Nc1ccc(N(C)C(=O)CN2CCN(C)CC2)cc1)c1ccccc1 [BIBF 1120]
Ageusia: patients with drug-related AE [1]: 0 | Alopecia: patients with drug-related AE [1]: 0 | Anorexia: patients with drug-related AE [1]: 0 | Asthenia: patients with drug-related AE [1]: 0 | Constipation: patients with drug-related AE [1]: 0 | Diarrhoea: patients with drug-related AE [1]: 0 | Dysgeusia: patients with drug-related AE [1]: 0 | Dyspepsia: patients with drug-related AE [1]: 0 | Dysphonia: patients with drug-related AE [1]: 0 | Elevated ALT: patients with drug-related AE [1]: 0 | Elevated AST: patients with drug-related AE [1]: 0 | Elevated GGT: patients with drug-related AE [1]: 0 | Elevated alkaline phosphatase: patients with drug-related AE [1]: 0 | Epistasis: patients with drug-related AE [1]: 0 | Headache: patients with drug-related AE [1]: 0 | Hot flush: patients with drug-related AE [1]: 0 | Mucosal inflammation: patients with drug-related AE [1]: 0 | Muscle spasm: patients with drug-related AE [1]: 0 | Nausea: patients with drug-related AE [1]: 0 | Neuropathy: patients with drug-related AE [1]: 0 | Pyrexia: patients with drug-related AE [1]: 0 | Rash: patients with drug-related AE [1]: 0 | Upper abdominal pain: patients with drug-related AE [1]: 0 | Vomiting: patients with drug-related AE [1]: 0 | Weight decrease: patients with drug-related AE [1]: 0 | Ageusia: patients with drug-related AE [2]: 0 | Alopecia: patients with drug-related AE [2]: 0 | Anorexia: patients with drug-related AE [2]: 0 | Asthenia: patients with drug-related AE [2]: 0 | Constipation: patients with drug-related AE [2]: 0 | Diarrhoea: patients with drug-related AE [2]: 0 | Dysgeusia: patients with drug-related AE [2]: 0 | Dyspepsia: patients with drug-related AE [2]: 0 | Dysphonia: patients with drug-related AE [2]: 0 | Elevated ALT: patients with drug-related AE [2]: 0 | Elevated AST: patients with drug-related AE [2]: 0 | Elevated GGT: patients with drug-related AE [2]: 0 | Elevated alkaline phosphatase: patients with drug-related AE [2]: 0 | Epistasis: patients with drug-related AE [2]: 0 | Headache: patients with drug-related AE [2]: 0 | Hot flush: patients with drug-related AE [2]: 0 | Mucosal inflammation: patients with drug-related AE [2]: 0 | Muscle spasm: patients with drug-related AE [2]: 0 | Nausea: patients with drug-related AE [2]: 0 | Neuropathy: patients with drug-related AE [2]: 0 | Pyrexia: patients with drug-related AE [2]: 0 | Rash: patients with drug-related AE [2]: 0 | Upper abdominal pain: patients with drug-related AE [2]: 0 | Vomiting: patients with drug-related AE [2]: 0 | Weight decrease: patients with drug-related AE [2]: 0 | Ageusia: patients with drug-related AE [3]: 0 | Alopecia: patients with drug-related AE [3]: 0 | Anorexia: patients with drug-related AE [3]: 0 | Asthenia: patients with drug-related AE [3]: 0 | Constipation: patients with drug-related AE [3]: 0 | Diarrhoea: patients with drug-related AE [3]: 0 | Dysgeusia: patients with drug-related AE [3]: 0 | Dyspepsia: patients with drug-related AE [3]: 0 | Dysphonia: patients with drug-related AE [3]: 0 | Elevated ALT: patients with drug-related AE [3]: 0 | Elevated AST: patients with drug-related AE [3]: 0 | Elevated GGT: patients with drug-related AE [3]: 0 | Elevated alkaline phosphatase: patients with drug-related AE [3]: 0 | Epistasis: patients with drug-related AE [3]: 0 | Headache: patients with drug-related AE [3]: 0 | Hot flush: patients with drug-related AE [3]: 0 | Mucosal inflammation: patients with drug-related AE [3]: 0 | Muscle spasm: patients with drug-related AE [3]: 0 | Nausea: patients with drug-related AE [3]: 0 | Neuropathy: patients with drug-related AE [3]: 0 | Pyrexia: patients with drug-related AE [3]: 0 | Rash: patients with drug-related AE [3]: 0 | Upper abdominal pain: patients with drug-related AE [3]: 0 | Vomiting: patients with drug-related AE [3]: 0 | Weight decrease: patients with drug-related AE [3]: 0 | Ageusia: patients with drug-related AE [4]: 1 | Alopecia: patients with drug-related AE [4]: 0 | Anorexia: patients with drug-related AE [4]: 3 | Asthenia: patients with drug-related AE [4]: 3 | Constipation: patients with drug-related AE [4]: 1 | Diarrhoea: patients with drug-related AE [4]: 3 | Dysgeusia: patients with drug-related AE [4]: 1 | Dyspepsia: patients with drug-related AE [4]: 1 | Dysphonia: patients with drug-related AE [4]: 1 | Elevated ALT: patients with drug-related AE [4]: 0 | Elevated AST: patients with drug-related AE [4]: 0 | Elevated GGT: patients with drug-related AE [4]: 0 | Elevated alkaline phosphatase: patients with drug-related AE [4]: 0 | Epistasis: patients with drug-related AE [4]: 1 | Headache: patients with drug-related AE [4]: 2 | Hot flush: patients with drug-related AE [4]: 0 | Mucosal inflammation: patients with drug-related AE [4]: 0 | Muscle spasm: patients with drug-related AE [4]: 0 | Nausea: patients with drug-related AE [4]: 2 | Neuropathy: patients with drug-related AE [4]: 1 | Pyrexia: patients with drug-related AE [4]: 1 | Rash: patients with drug-related AE [4]: 0 | Upper abdominal pain: patients with drug-related AE [4]: 1 | Vomiting: patients with drug-related AE [4]: 0 | Weight decrease: patients with drug-related AE [4]: 1 | Ageusia: patients with drug-related AE [5]: 0 | Alopecia: patients with drug-related AE [5]: 0 | Anorexia: patients with drug-related AE [5]: 0 | Asthenia: patients with drug-related AE [5]: 0 | Constipation: patients with drug-related AE [5]: 0 | Diarrhoea: patients with drug-related AE [5]: 2 | Dysgeusia: patients with drug-related AE [5]: 0 | Dyspepsia: patients with drug-related AE [5]: 0 | Dysphonia: patients with drug-related AE [5]: 0 | Elevated ALT: patients with drug-related AE [5]: 0 | Elevated AST: patients with drug-related AE [5]: 0 | Elevated GGT: patients with drug-related AE [5]: 0 | Elevated alkaline phosphatase: patients with drug-related AE [5]: 0 | Epistasis: patients with drug-related AE [5]: 0 | Headache: patients with drug-related AE [5]: 0 | Hot flush: patients with drug-related AE [5]: 0 | Mucosal inflammation: patients with drug-related AE [5]: 0 | Muscle spasm: patients with drug-related AE [5]: 0 | Nausea: patients with drug-related AE [5]: 0 | Neuropathy: patients with drug-related AE [5]: 0 | Pyrexia: patients with drug-related AE [5]: 0 | Rash: patients with drug-related AE [5]: 0 | Upper abdominal pain: patients with drug-related AE [5]: 0 | Vomiting: patients with drug-related AE [5]: 0 | Weight decrease: patients with drug-related AE [5]: 0 | Ageusia: patients with drug-related AE [6]: 0 | Alopecia: patients with drug-related AE [6]: 0 | Anorexia: patients with drug-related AE [6]: 0 | Asthenia: patients with drug-related AE [6]: 1 | Constipation: patients with drug-related AE [6]: 0 | Diarrhoea: patients with drug-related AE [6]: 2 | Dysgeusia: patients with drug-related AE [6]: 0
